According to patent EP0319906A2, “Novel quinoline derivatives, processes for preparation thereof and antibacterial agent containing them” (Dainippon Pharmaceutical Co., Ltd., priority 1987, dated 1989):
≈ marks a conversion by molar mass, not a printed value. Like-named read-outs stand apart in the source and are kept apart here.

What was measured:
in vivo = conditions: mouse, po, orally given to male mice (ddY), dead mice counted after 7 days, Behrens-Kaerber method, read-out: LD₅₀
Method: A suspension containing each of compounds of this invention in various concentrations was orally given to male mice (ddY) at a dose of 0.1 ml per 10 g of body weight. The number of dead mice was counted after 7 days, and the value of median lethal dose (LD₅₀, mg/kg) was calculated in accordance with the Behrens-Kaerber method.

S. aureus No. 80 = experiment: In vitro antibacterial activity, twofold agar-dilution MIC; assay type: cell-based; conditions: Staphylococcus aureus, read-out: minimum inhibitory concentrations (MIC)
Method: (§1) The figures in the table show minimum inhibitory concentrations (MIC) (µg/ml), calculated for free base. […] One loopful of an overnight culture of test organisms in Mueller-Hinton broth was inoculated onto 10 ml drug- containing agar layers in petri dishes. Bacterial inocula contained approximately 10⁶ colonyl-forming units. […] The MIC was defined as the lowest drug concentration which prevented visible bacterial growth.

S. pyogenes A65 = experiment: as above; assay type: cell-based; conditions: Streptococcus pyogenes, read-out: minimum inhibitory concentrations (MIC)
Method: as §1

S. aureus Terajima = experiment: as above; assay type: cell-based; conditions: Staphylococcus aureus, read-out: minimum inhibitory concentrations (MIC)
Method: as §1

P. aeruginosa 12 = experiment: as above; assay type: cell-based; conditions: read-out: minimum inhibitory concentrations (MIC)
Method: as §1

S. marcescens S-9 = experiment: as above; assay type: cell-based; conditions: Serratia marcescens, read-out: minimum inhibitory concentrations (MIC)
Method: as §1

S. aureus 209 JC-1 = experiment: as above; assay type: cell-based; conditions: Staphylococcus aureus, read-out: minimum inhibitory concentrations (MIC)
Method: as §1

E. coli NIHJ JC-2 = experiment: as above; assay type: cell-based; conditions: Escherichia coli, read-out: minimum inhibitory concentrations (MIC)
Method: as §1

S. epidermidis No. 8 = experiment: as above; assay type: cell-based; conditions: Staphylococcus epidermidis, read-out: minimum inhibitory concentrations (MIC)
Method: as §1

E. coli P-5101 = experiment: as above; assay type: cell-based; conditions: Escherichia coli, read-out: minimum inhibitory concentrations (MIC)
Method: as §1

M. hominis PG-21 = experiment: Antimycoplasma activity, twofold agar dilution MIC; assay type: cell-based; conditions: Metamycoplasma hominis, PG21, 48 h, read-out: minimum inhibitory concentrations (MIC)
Method: (§2) The figures in the table show minimum inhibitory concentrations (MIC), (μg/ml), calculated for free base. Minimum inhibitory concentrations (MIC) were determined by the twofold agar dilution method. The media used were Chanock broth and agar [PPLD broth and agar (Difco) supplemented with 20 % horse serum and 10 % fresh yeast extract]. A 2-3 day broth culture of organisms was diluted with Chanock broth to a cell density of about 10^6 cells/ml. One loopful (about […]) of the organism dilution was spotted onto 10-ml drug containing Chanock agar in petri dishes using a multiple inoculator ([…] International). […] Incubation was performed anaerobically using the […] anaerobic system (BBL) for M. buccale, M. fermentans, M. hominis, M. orale and M. salivarium, and aerobically for other Mycoplasma spp. The MIC was defined as the lowest compound concentration at which no growth of organism was detected.

M. pneumoniae Mac = experiment: Antimycoplasma activity, twofold agar dilution MIC; assay type: cell-based; conditions: Mycoplasmoides pneumoniae, 168 h, read-out: minimum inhibitory concentrations (MIC)
Method: as §2

M. fermentans PG-18 = experiment: Antimycoplasma activity, twofold agar dilution MIC; assay type: cell-based; conditions: Mycoplasmopsis fermentans, PG18, 48 h, read-out: minimum inhibitory concentrations (MIC)
Method: as §2

M. salivarium PG-20 = experiment: Antimycoplasma activity, twofold agar dilution MIC; assay type: cell-based; conditions: 48 h, read-out: minimum inhibitory concentrations (MIC)
Method: as §2

M. arginini G-230 = experiment: Antimycoplasma activity, twofold agar dilution MIC; assay type: cell-based; conditions: 48 h, read-out: minimum inhibitory concentrations (MIC)
Method: as §2

A. laidlawii PG-8 = experiment: Antimycoplasma activity, twofold agar dilution MIC; assay type: cell-based; conditions: Acholeplasma laidlawii, PG8, 48 h, read-out: minimum inhibitory concentrations (MIC)
Method: as §2

M. orale CH-19299 = experiment: Antimycoplasma activity, twofold agar dilution MIC; assay type: cell-based; conditions: po, 48 h, read-out: minimum inhibitory concentrations (MIC)
Method: as §2

M. buccale CH-20249 = experiment: Antimycoplasma activity, twofold agar dilution MIC; assay type: cell-based; conditions: 48 h, read-out: minimum inhibitory concentrations (MIC)
Method: as §2

M. hyorhinis BST-7 = experiment: Antimycoplasma activity, twofold agar dilution MIC; assay type: cell-based; conditions: Mesomycoplasma hyorhinis, BST7, 48 h, read-out: minimum inhibitory concentrations (MIC)
Method: as §2

C. Trachomatics G/ur 931 = experiment: Antichlamydia activity, MIC in McCoy cells (inclusion bodies); assay type: cell-based; conditions: read-out: minimum inhibitory concentrations (MIC)
Method: (§3) The figures in the table show minimum inhibitory concentrations (MIC), (μg/ml), calculated for free base. Minimum inhibitory concentrations (MIC) were determined as follows. […] The cells were trypsinized and suspended in the same culture medium at a cell concentration of 1-2 x 10^5 cells/ml. One ml of the cell suspension was pipetted into flat-bottomed plastic tubes (14 mm in diameter) containing a cover slip (12 mm in diameter). The tubes were incubated in 5 % CO2-air at 36 °C for 20 hours. One-half ml of a chlamydial suspension (ca. 1-4 x 103 inclusion body forming units) was added into each tube, which was then centrifuged at 1500 x g for 60 minutes. The tubes were incubated for 1 hour at 36 °C. […] After further incubation at 36 °C for 40-48 hours, the cells on the cover glasses were stained with the Giemsa's solution. […] The MIC was defined as the lowest drug concentration where there were no inclusion bodies in all the cells on the cover slip.

[1] = test system: C. Trachomatics G/ur 1317; experiment: as above; assay type: cell-based; conditions: read-out: minimum inhibitory concentrations (MIC)
Method: as §3

[2] = test system: C. Trachomatics G/ur 1448; experiment: as above; assay type: cell-based; conditions: read-out: minimum inhibitory concentrations (MIC)
Method: as §3

[3] = test system: C. Trachomatics G/ur 1242; experiment: as above; assay type: cell-based; conditions: read-out: minimum inhibitory concentrations (MIC)
Method: as §3

[4] = S. aureus No. 80, Mueller-Hinton agar, 20-hour incubation at 37 °C, calculated for free base
[5] = S. pyogenes A65, Mueller-Hinton agar, 20-hour incubation at 37 °C, calculated for free base
[6] = S. aureus Terajima, Mueller-Hinton agar, 20-hour incubation at 37 °C, calculated for free base
[7] = Pseudomonas aeruginosa, P. aeruginosa 12, Mueller-Hinton agar, 20-hour incubation at 37 °C, calculated for free base
[8] = S9, S. marcescens S-9, Mueller-Hinton agar, 20-hour incubation at 37 °C, calculated for free base
[9] = 209JC1, S. aureus 209 JC-1, Mueller-Hinton agar, 20-hour incubation at 37 °C, calculated for free base
[10] = NIHJJC2, E. coli NIHJ JC-2, Mueller-Hinton agar, 20-hour incubation at 37 °C, calculated for free base
[11] = S. epidermidis No. 8, Mueller-Hinton agar, 20-hour incubation at 37 °C, calculated for free base
[12] = P5101, E. coli P-5101, Mueller-Hinton agar, 20-hour incubation at 37 °C, calculated for free base
[13] = C. Trachomatics G/ur 931, McCoy cells, 36 °C for 40-48 hours, calculated for free base
[14] = C. Trachomatics G/ur 1317, McCoy cells, 36 °C for 40-48 hours, calculated for free base
[15] = C. Trachomatics G/ur 1448, McCoy cells, 36 °C for 40-48 hours, calculated for free base
[16] = C. Trachomatics G/ur 1242, McCoy cells, 36 °C for 40-48 hours, calculated for free base

Work on Cc1c(F)c(N2CCNCC2)cc2c1c(=O)c(C(=O)O)cn2C1CC1 [Compound 5, 1-cyclopropyl-6-fluoro-5-methyl-7-(1-piperazinyl)-1,4-dihydro-4-oxoquinoline-3-carboxylic acid] yielded an LD50 at 7 days (in vivo) greater than 2000 mg/kg, an MIC (S. aureus No. 80; [4]) of 0.0125 µg/mL (≈ 0.0362 µM) and an MIC (S. pyogenes A65; [5]) of 0.39 µg/mL (≈ 1.13 µM). It also gave an MIC (S. aureus Terajima; [6]) of 0.025 µg/mL (≈ 0.0724 µM), an MIC (P. aeruginosa 12; [7]) of 0.1 µg/mL (≈ 0.29 µM) and an MIC (S. marcescens S-9; [8]) of 0.2 µg/mL (≈ 0.579 µM). It also gave an MIC (S. aureus 209 JC-1; [9]) of 0.05 µg/mL (≈ 0.145 µM), an MIC (E. coli NIHJ JC-2; [10]) of 0.0125 µg/mL (≈ 0.0362 µM) and an MIC (S. epidermidis No. 8; [11]) of 0.025 µg/mL (≈ 0.0724 µM). The MIC (E. coli P-5101; [12]) was 0.0125 µg/mL (≈ 0.0362 µM).
For Cl.O=C(O)c1cn(C2CC2)c2cc(N3CCNCC3)c(F)cc2c1=O [Compound A, 1-cyclopropyl-6-fluoro-7-(1-piperazinyl)-1,4-dihydro-4-oxoquinoline-3-carboxylic acid hydrochloride], the MIC (M. hominis PG-21) was 1.56 µg/mL, the MIC (M. pneumoniae Mac) was 0.78 µg/mL and the MIC (M. fermentans PG-18) was 0.2 µg/mL. For the same molecule, the MIC (M. salivarium PG-20) was 3.13 µg/mL, the MIC (M. arginini G-230) was 0.39 µg/mL and the MIC (A. laidlawii PG-8) was 0.39 µg/mL. It also gave an MIC (M. orale CH-19299) of 1.56 µg/mL, an MIC (M. buccale CH-20249) of 0.39 µg/mL and an MIC (M. hyorhinis BST-7) of 0.39 µg/mL. For the same molecule, the MIC (C. Trachomatics G/ur 931) was 1 µg/mL, the MIC [1] was 2 µg/mL and the MIC [2] was 1 µg/mL. The MIC [3] was 1 µg/mL, the MIC (S. aureus No. 80; NO.80, 20 h) was 0.39 µg/mL and the MIC (S. pyogenes A65; A65, 20 h) was 0.2 µg/mL. It also gave an MIC (S. aureus Terajima; 20 h) of 0.1 µg/mL, an MIC (P. aeruginosa 12; Pseudomonas aeruginosa, 12, 20 h) of 0.1 µg/mL and an MIC (S. marcescens S-9; S9, 20 h) of 0.05 µg/mL. For the same molecule, the MIC (S. aureus 209 JC-1; 209JC1, 20 h) was 0.1 µg/mL, the MIC (E. coli NIHJ JC-2; NIHJJC2, 20 h) was 0.0063 µg/mL and the MIC (S. epidermidis No. 8; NO.8, 20 h) was 0.1 µg/mL. The MIC (E. coli P-5101; P5101, 20 h) was 0.0063 µg/mL.
In the case of O=C(O)c1cn(C2CC2)c2c(F)c(N3CCNCC3)c(F)cc2c1=O [Compound B, 1-cyclopropyl-6,8-difluoro-7-(1-piperazinyl)-1,4-dihydro-4-oxoquinoline-3-carboxylic acid, reference compound], the MIC (C. Trachomatics G/ur 931; [13]) is reported as 0.39 µg/mL (≈ 1.12 µM), the MIC [1, 14] is reported as 0.39 µg/mL (≈ 1.12 µM) and the MIC [2, 15] is reported as 0.39 µg/mL (≈ 1.12 µM). For the same molecule, the MIC [3, 16] was 0.39 µg/mL (≈ 1.12 µM), the MIC (S. aureus No. 80; [4]) was 0.2 µg/mL (≈ 0.573 µM) and the MIC (S. pyogenes A65; [5]) was 0.39 µg/mL (≈ 1.12 µM). It also gave an MIC (S. aureus Terajima; [6]) of 0.1 µg/mL (≈ 0.286 µM), an MIC (P. aeruginosa 12; [7]) of 0.1 µg/mL (≈ 0.286 µM) and an MIC (S. marcescens S-9; [8]) of 0.05 µg/mL (≈ 0.143 µM). It also gave an MIC (S. aureus 209 JC-1; [9]) of 0.1 µg/mL (≈ 0.286 µM), an MIC (E. coli NIHJ JC-2; [10]) of 0.0063 µg/mL (≈ 0.018 µM) and an MIC (S. epidermidis No. 8; [11]) of 0.1 µg/mL (≈ 0.286 µM). For the same molecule, the MIC (E. coli P-5101; [12]) was 0.0063 µg/mL (≈ 0.018 µM).
Molecule Cc1c(F)c(N2CCNCC2)c(C#N)c2c1c(=O)c(C(=O)O)cn2C1CC1 [Compound D, 8-cyano-1-cyclopropyl-6-fluoro-5-methyl-7-(1-piperazinyl)-1,4-dihydro-4-oxoquinoline-3-carboxylic acid, reference compound] has an MIC (C. Trachomatics G/ur 931; [13]) of 1.56 µg/mL (≈ 4.21 µM), an MIC [1, 14] of 3.13 µg/mL (≈ 8.45 µM) and an MIC [2, 15] of 3.13 µg/mL (≈ 8.45 µM). The MIC [3, 16] was 3.13 µg/mL (≈ 8.45 µM), the MIC (S. aureus No. 80; [4]) was 0.1 µg/mL (≈ 0.27 µM) and the MIC (S. pyogenes A65; [5]) was 1.56 µg/mL (≈ 4.21 µM). It also gave an MIC (S. aureus Terajima; [6]) of 0.1 µg/mL (≈ 0.27 µM), an MIC (P. aeruginosa 12; [7]) of 0.39 µg/mL (≈ 1.05 µM) and an MIC (S. marcescens S-9; [8]) of 0.39 µg/mL (≈ 1.05 µM). For the same molecule, the MIC (S. aureus 209 JC-1; [9]) was 0.1 µg/mL (≈ 0.27 µM), the MIC (E. coli NIHJ JC-2; [10]) was 0.0125 µg/mL (≈ 0.0337 µM) and the MIC (S. epidermidis No. 8; [11]) was 0.1 µg/mL (≈ 0.27 µM). For the same molecule, the MIC (E. coli P-5101; [12]) was 0.0125 µg/mL (≈ 0.0337 µM).
